Where two headings read alike, the source gives them in different places.
Tests used:
Assay type in all cases: cell-based, human
TD-47D (breast) = experiment: NCI anticancer screen, SRB assay, 48 h
Outline: (§1)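 Sulforhodamine B protein assay read cell growth after 48 h of continuous compound exposure. Dose-response curves per cell line used at least five 10-fold-diluted concentrations, within a panel of fifty-three human lines from nine tumour types.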

[1] = system: EKVX (non-small cell lung); experiment: NCI anticancer screen, SRB assay, 48 h
Outline: as §1

KM12 (colon) = experiment: NCI anticancer screen, SRB assay, 48 h
Outline: as §1

SF-539 (CNS) = experiment: NCI anticancer screen, SRB assay, 48 h
Outline: as §1

[2] = system: HOP-92 (non-small cell lung); experiment: NCI anticancer screen, SRB assay, 48 h
Outline: as §1

COLO 205 (colon) = experiment: NCI anticancer screen, SRB assay, 48 h
Outline: as §1

SN12C (renal) = experiment: NCI anticancer screen, SRB assay, 48 h
Outline: as §1

UO-31 (renal) = experiment: NCI anticancer screen, SRB assay, 48 h
Outline: as §1

A498 (renal) = experiment: NCI anticancer screen, SRB assay, 48 h
Outline: as §1

HCC-2998 (colon) = experiment: NCI anticancer screen, SRB assay, 48 h
Outline: as §1

OVCAR-5 (ovarian) = experiment: NCI anticancer screen, SRB assay, 48 h
Outline: as §1

CAKI-1 (renal) = experiment: NCI anticancer screen, SRB assay, 48 h
Outline: as §1

OVCAR-3 (ovarian) = experiment: NCI anticancer screen, SRB assay, 48 h
Outline: as §1

TK-10 (renal) = experiment: NCI anticancer screen, SRB assay, 48 h
Outline: as §1

PC-3 (prostate) = experiment: NCI anticancer screen, SRB assay, 48 h; conditions: for GI50: read-out: GI50
Outline: as §1

[3] = system: NCI-H322M (non-small cell lung); experiment: NCI anticancer screen, SRB assay, 48 h
Outline: as §1

[4] = system: A549/ATCC (non-small cell lung); experiment: NCI anticancer screen, SRB assay, 48 h
Outline: as §1

HCT-15 (colon) = experiment: NCI anticancer screen, SRB assay, 48 h
Outline: as §1

[5] = system: NCI-H23 (non-small cell lung); experiment: NCI anticancer screen, SRB assay, 48 h
Outline: as §1

SK-MEL-5 (melanoma) = experiment: NCI anticancer screen, SRB assay, 48 h
Outline: as §1

BT-549 (breast) = experiment: NCI anticancer screen, SRB assay, 48 h
Outline: as §1

SK-MEL-2 (melanoma) = experiment: NCI anticancer screen, SRB assay, 48 h
Outline: as §1

[6] = system: NCI-H522 (non-small cell lung); experiment: NCI anticancer screen, SRB assay, 48 h
Outline: as §1

MDA-MB-435 (melanoma) = experiment: NCI anticancer screen, SRB assay, 48 h
Outline: as §1

Colon cancer cell lines = experiment: NCI anticancer screen, SRB assay, panel summary; conditions: Colon panel
Outline: as §1

[7] = system: Ovarian cancer cell lines; experiment: NCI anticancer screen, SRB assay, panel summary; conditions: Ovarian panel
Outline: as §1

[8] = system: Melanoma cancer cell lines; experiment: NCI anticancer screen, SRB assay, panel summary; conditions: Melanoma panel
Outline: as §1

[9] = system: Non-small cell lung cancer cell lines; experiment: NCI anticancer screen, SRB assay, panel summary
Outline: as §1

Breast cancer cell lines = experiment: NCI anticancer screen, SRB assay, panel summary
Outline: as §1

[10] = system: Prostate cancer cell lines; experiment: NCI anticancer screen, SRB assay, panel summary
Outline: as §1

[11] = system: Leukemia cancer cell lines; experiment: NCI anticancer screen, SRB assay, panel summary; conditions: Leukemia panel
Outline: as §1

Renal cancer cell lines = experiment: NCI anticancer screen, SRB assay, panel summary
Outline: as §1

CNS cancer cell lines = experiment: NCI anticancer screen, SRB assay, panel summary; conditions: CNS panel
Outline: as §1

[12] = 48 h exposure, SRB, read-out: GI50
[13] = log of concentration in mol/L causing 50% inhibition of net cell growth
[14] = log of concentration leading to 50% net cell death
[15] = log of concentration resulting in total inhibition of net cell growth

In the case of `COc1ccc(-c2cn(-c3cccc(C(=O)/C=C/c4cc(OC)c(OC)c(OC)c4)c3)c(=O)[nH]2)cc1` [5b, 4-(4-methoxyphenyl)-1-3-[(E)-3-(3,4,5-trimethoxyphenyl)-2-propenoyl]phenyl-2,3-dihydro-1H-2-imidazolone], the “pGI50 (-log of molar concentration causing 50% inhibition of net cell growth)” value (TD-47D (breast)) is reported as 5.42, the GI50 (TD-47D (breast); [12]) is reported as 3.84 µM and the “pGI50 (-log of molar concentration causing 50% inhibition of net cell growth)” value [1] is reported as 5.38. The GI50 [1, 12] was 4.2 µM, the “pGI50 (-log of molar concentration causing 50% inhibition of net cell growth)” value (KM12 (colon)) was 5.85 and the GI50 (KM12 (colon); [12]) was 1.42 µM. For the same compound, the “pGI50 (-log of molar concentration causing 50% inhibition of net cell growth)” value (SF-539 (CNS)) was 5.70, the GI50 (SF-539 (CNS); [12]) was 2 µM and the “pGI50 (-log of molar concentration causing 50% inhibition of net cell growth)” value [2] was 4.83. The GI50 [2, 12] was 14.9 µM, the “pGI50 (-log of molar concentration causing 50% inhibition of net cell growth)” value (COLO 205 (colon); COLO205) was 5.74 and the GI50 (COLO 205 (colon); COLO 205, 48 h exposure, SRB, read-out: GI50) was 1.84 µM. For the same compound, the “pGI50 (-log of molar concentration causing 50% inhibition of net cell growth)” value (SN12C (renal); SN 12C) was 5.46, the GI50 (SN12C (renal); SN12C, 48 h exposure, SRB, read-out: GI50) was 3.5 µM and the “pGI50 (-log of molar concentration causing 50% inhibition of net cell growth)” value (UO-31 (renal)) was 5.72. For the same compound, the GI50 (UO-31 (renal); [12]) was 1.91 µM, the “pGI50 (-log of molar concentration causing 50% inhibition of net cell growth)” value (A498 (renal)) was 5.38 and the GI50 (A498 (renal); [12]) was 4.21 µM. For the same compound, the “pGI50 (-log of molar concentration causing 50% inhibition of net cell growth)” value (HCC-2998 (colon)) was 5.79, the GI50 (HCC-2998 (colon); [12]) was 1.64 µM and the “pGI50 (-log of molar concentration causing 50% inhibition of net cell growth)” value (OVCAR-5 (ovarian)) was 5.58. The GI50 (OVCAR-5 (ovarian); [12]) was 2.64 µM, the “pGI50 (-log of molar concentration causing 50% inhibition of net cell growth)” value (CAKI-1 (renal)) was 5.52 and the GI50 (CAKI-1 (renal); [12]) was 3.05 µM. The “pGI50 (-log of molar concentration causing 50% inhibition of net cell growth)” value (OVCAR-3 (ovarian)) was 5.75, the GI50 (OVCAR-3 (ovarian); [12]) was 1.78 µM and the “pGI50 (-log of molar concentration causing 50% inhibition of net cell growth)” value (TK-10 (renal)) was 5.52. The GI50 (TK-10 (renal); [12]) was 3.04 µM, the “pGI50 (-log of molar concentration causing 50% inhibition of net cell growth)” value (PC-3 (prostate); PC-3) was 5.21 and the GI50 (PC-3 (prostate); PC-3, 48 h exposure, SRB) was 6.22 µM. The GI50 (PC-3 (prostate); one prostate cancer cell line (PC-3), exposure at least 48 hrs) was 6.22 µM, the “pGI50 (-log of molar concentration causing 50% inhibition of net cell growth)” value [3] was 5.58 and the GI50 [3, 12] was 2.66 µM. The “pGI50 (-log of molar concentration causing 50% inhibition of net cell growth)” value [4] was 4.93, the GI50 [4, 12] was 11.8 µM and the “pGI50 (-log of molar concentration causing 50% inhibition of net cell growth)” value (HCT-15 (colon)) was 5.86. The GI50 (HCT-15 (colon); [12]) was 1.38 µM, the “pGI50 (-log of molar concentration causing 50% inhibition of net cell growth)” value [5] was 5.79 and the GI50 [5, 12] was 1.63 µM. For the same compound, the “pGI50 (-log of molar concentration causing 50% inhibition of net cell growth)” value (SK-MEL-5 (melanoma)) was 5.69, the GI50 (SK-MEL-5 (melanoma); [12]) was 2.03 µM and the “pGI50 (-log of molar concentration causing 50% inhibition of net cell growth)” value (BT-549 (breast)) was 5.59. For the same compound, the GI50 (BT-549 (breast); [12]) was 2.59 µM, the “pGI50 (-log of molar concentration causing 50% inhibition of net cell growth)” value (SK-MEL-2 (melanoma)) was 5.58 and the GI50 (SK-MEL-2 (melanoma); [12]) was 2.63 µM. The “pGI50 (-log of molar concentration causing 50% inhibition of net cell growth)” value [6] was 5.73, the GI50 [6, 12] was 1.85 µM and the “pGI50 (-log of molar concentration causing 50% inhibition of net cell growth)” value (MDA-MB-435 (melanoma)) was 5.73. The GI50 (MDA-MB-435 (melanoma); [12]) was 1.86 µM, the “mean graph midpoint (MG_MID) of Log10 GI50” value (Colon cancer cell lines; [13]) was 5.95 and the “mean graph midpoint (MG_MID) of Log10 LC50” value (Colon cancer cell lines; [14]) was 5.13. For the same compound, the “mean graph midpoint (MG_MID) of Log10 TGI” value (Colon cancer cell lines; [15]) was 5.58, the “mean graph midpoint (MG_MID) of Log10 GI50” value [7, 13] was 5.58 and the “mean graph midpoint (MG_MID) of Log10 LC50” value [7, 14] was 4.41. The “mean graph midpoint (MG_MID) of Log10 TGI” value [7, 15] was 4.83, the “mean graph midpoint (MG_MID) of Log10 GI50” value [8, 13] was 5.72 and the “mean graph midpoint (MG_MID) of Log10 LC50” value [8, 14] was 4.58. The “mean graph midpoint (MG_MID) of Log10 TGI” value [8, 15] was 5.25, the “mean graph midpoint (MG_MID) of Log10 LC50” value [9] was 4.82 and the “mean graph midpoint (MG_MID) of Log10 GI50” value ([9]; Non-small cell lung panel, log of concentration in mol/L causing 50% inhibition of net cell growth) was 5.30. For the same compound, the “mean graph midpoint (MG_MID) of Log10 TGI” value ([9]; Non-small cell lung panel, log of concentration resulting in total inhibition of net cell growth) was 4.66, the “mean graph midpoint (MG_MID) of Log10 LC50” value (Breast cancer cell lines) was 4.91 and the “mean graph midpoint (MG_MID) of Log10 GI50” value (Breast cancer cell lines; Breast panel, log of concentration in mol/L causing 50% inhibition of net cell growth) was 5.61. The “mean graph midpoint (MG_MID) of Log10 TGI” value (Breast cancer cell lines; Breast panel, log of concentration resulting in total inhibition of net cell growth) was 4.86, the “mean graph midpoint (MG_MID) of Log10 GI50” value [10, 13] was 5.21 and the “mean graph midpoint (MG_MID) of Log10 TGI” value [10, 15] was 4.41. For the same compound, the “mean graph midpoint (MG_MID) of Log10 GI50” value [11, 13] was 5.96, the “mean graph midpoint (MG_MID) of Log10 TGI” value [11, 15] was 4.00 and the “mean graph midpoint (MG_MID) of Log10 LC50” value (Renal cancer cell lines) was 4.46. The “mean graph midpoint (MG_MID) of Log10 GI50” value (Renal cancer cell lines; Renal panel, log of concentration in mol/L causing 50% inhibition of net cell growth) was 5.60, the “mean graph midpoint (MG_MID) of Log10 TGI” value (Renal cancer cell lines; Renal panel, log of concentration resulting in total inhibition of net cell growth) was 5.12 and the “mean graph midpoint (MG_MID) of Log10 GI50” value (CNS cancer cell lines; [13]) was 5.54. The “mean graph midpoint (MG_MID) of Log10 LC50” value (CNS cancer cell lines; [14]) was 4.55 and the “mean graph midpoint (MG_MID) of Log10 TGI” value (CNS cancer cell lines; [15]) was 5.01.
